Results from the NIST ThermoML archive (doi:10.1016/j.jct.2006.07.022).
Numbers after ± are expanded uncertainties.

Assay: xn = mol fraction of the nth substance listed
Details: 101 kPa, Liquid

SMILES: CCc1ccccc1 [ethylbenzene] + CN(C)C=O
- mass density (293.15 K, x1 = 0.0514): 942.69 ± 0.26 kg/m3
- mass density (293.15 K, x1 = 0.1124): 936.07 ± 0.28 kg/m3
- mass density (293.15 K, x1 = 0.1754): 929.58 ± 0.29 kg/m3
- mass density (293.15 K, x1 = 0.2451): 922.8 ± 0.31 kg/m3
- mass density (293.15 K, x1 = 0.3102): 916.81 ± 0.33 kg/m3
- mass density (293.15 K, x1 = 0.3754): 911.11 ± 0.34 kg/m3
- mass density (293.15 K, x1 = 0.4514): 904.81 ± 0.36 kg/m3
- mass density (293.15 K, x1 = 0.5214): 899.3 ± 0.37 kg/m3
- mass density (293.15 K, x1 = 0.5862): 894.43 ± 0.39 kg/m3
- mass density (293.15 K, x1 = 0.6478): 890 ± 0.4 kg/m3
- mass density (293.15 K, x1 = 0.7012): 886.28 ± 0.41 kg/m3
- mass density (293.15 K, x1 = 0.7658): 881.94 ± 0.43 kg/m3
- mass density (293.15 K, x1 = 0.8214): 878.33 ± 0.44 kg/m3
- mass density (293.15 K, x1 = 0.8845): 874.33 ± 0.45 kg/m3
- mass density (293.15 K, x1 = 0.9451): 870.6 ± 0.47 kg/m3
- mass density (293.15 K, x1 = 1): 867.28 ± 0.48 kg/m3
- mass density (303.15 K, x1 = 0.0562): 933.08 ± 0.28 kg/m3
- mass density (303.15 K, x1 = 0.1141): 926.82 ± 0.29 kg/m3
- mass density (303.15 K, x1 = 0.1865): 919.45 ± 0.31 kg/m3
- mass density (303.15 K, x1 = 0.2451): 913.8 ± 0.32 kg/m3
- mass density (303.15 K, x1 = 0.3065): 908.15 ± 0.34 kg/m3
- mass density (303.15 K, x1 = 0.375): 902.18 ± 0.35 kg/m3
- mass density (303.15 K, x1 = 0.4354): 897.14 ± 0.37 kg/m3
- mass density (303.15 K, x1 = 0.4952): 892.39 ± 0.38 kg/m3
- mass density (303.15 K, x1 = 0.5685): 886.81 ± 0.4 kg/m3
- mass density (303.15 K, x1 = 0.6284): 882.45 ± 0.41 kg/m3
- mass density (303.15 K, x1 = 0.7025): 877.28 ± 0.43 kg/m3
- mass density (303.15 K, x1 = 0.7654): 873.05 ± 0.44 kg/m3
- mass density (303.15 K, x1 = 0.8251): 869.17 ± 0.45 kg/m3
- mass density (303.15 K, x1 = 0.8821): 865.57 ± 0.47 kg/m3
- mass density (303.15 K, x1 = 0.9422): 861.86 ± 0.48 kg/m3
- mass density (303.15 K, x1 = 1): 858.36 ± 0.49 kg/m3
- mass density (313.15 K, x1 = 0.0684): 922.45 ± 0.29 kg/m3
- mass density (313.15 K, x1 = 0.1151): 917.46 ± 0.31 kg/m3
- mass density (313.15 K, x1 = 0.1855): 910.34 ± 0.32 kg/m3
- mass density (313.15 K, x1 = 0.2525): 903.93 ± 0.34 kg/m3
- mass density (313.15 K, x1 = 0.3101): 898.69 ± 0.35 kg/m3
- mass density (313.15 K, x1 = 0.3852): 892.2 ± 0.37 kg/m3
- mass density (313.15 K, x1 = 0.4421): 887.51 ± 0.38 kg/m3
- mass density (313.15 K, x1 = 0.5012): 882.85 ± 0.39 kg/m3
- mass density (313.15 K, x1 = 0.5688): 877.74 ± 0.41 kg/m3
- mass density (313.15 K, x1 = 0.6211): 873.93 ± 0.42 kg/m3
- mass density (313.15 K, x1 = 0.6855): 869.42 ± 0.43 kg/m3
- mass density (313.15 K, x1 = 0.7451): 865.39 ± 0.45 kg/m3
- mass density (313.15 K, x1 = 0.8021): 861.65 ± 0.46 kg/m3
- mass density (313.15 K, x1 = 0.8654): 857.62 ± 0.47 kg/m3
- mass density (313.15 K, x1 = 0.9325): 853.47 ± 0.49 kg/m3
- mass density (313.15 K, x1 = 1): 849.38 ± 0.5 kg/m3
- mass density (323.15 K, x1 = 0.0463): 915.35 ± 0.3 kg/m3
- mass density (323.15 K, x1 = 0.1125): 908.29 ± 0.32 kg/m3
- mass density (323.15 K, x1 = 0.1785): 901.64 ± 0.33 kg/m3
- mass density (323.15 K, x1 = 0.2462): 895.17 ± 0.35 kg/m3
- mass density (323.15 K, x1 = 0.312): 889.22 ± 0.36 kg/m3
- mass density (323.15 K, x1 = 0.3745): 883.85 ± 0.38 kg/m3
- mass density (323.15 K, x1 = 0.4352): 878.85 ± 0.39 kg/m3
- mass density (323.15 K, x1 = 0.4952): 874.12 ± 0.41 kg/m3
- mass density (323.15 K, x1 = 0.5552): 869.58 ± 0.42 kg/m3
- mass density (323.15 K, x1 = 0.6125): 865.41 ± 0.43 kg/m3
- mass density (323.15 K, x1 = 0.6784): 860.79 ± 0.45 kg/m3
- mass density (323.15 K, x1 = 0.7451): 856.29 ± 0.46 kg/m3
- mass density (323.15 K, x1 = 0.8021): 852.57 ± 0.47 kg/m3
- mass density (323.15 K, x1 = 0.8666): 848.48 ± 0.49 kg/m3
- mass density (323.15 K, x1 = 0.9451): 843.65 ± 0.5 kg/m3
- mass density (323.15 K, x1 = 1): 840.35 ± 0.51 kg/m3
- mass density (333.15 K, x1 = 0.0548): 904.7 ± 0.32 kg/m3
- mass density (333.15 K, x1 = 0.1241): 897.45 ± 0.34 kg/m3
- mass density (333.15 K, x1 = 0.1852): 891.41 ± 0.35 kg/m3
- mass density (333.15 K, x1 = 0.2451): 885.77 ± 0.36 kg/m3
- mass density (333.15 K, x1 = 0.3021): 880.64 ± 0.38 kg/m3
- mass density (333.15 K, x1 = 0.3625): 875.45 ± 0.39 kg/m3
- mass density (333.15 K, x1 = 0.4255): 870.27 ± 0.4 kg/m3
- mass density (333.15 K, x1 = 0.4954): 864.79 ± 0.42 kg/m3
- mass density (333.15 K, x1 = 0.5621): 859.79 ± 0.43 kg/m3
- mass density (333.15 K, x1 = 0.6215): 855.53 ± 0.45 kg/m3
- mass density (333.15 K, x1 = 0.6865): 851.02 ± 0.46 kg/m3
- mass density (333.15 K, x1 = 0.7451): 847.11 ± 0.47 kg/m3
- mass density (333.15 K, x1 = 0.8002): 843.53 ± 0.48 kg/m3
- mass density (333.15 K, x1 = 0.8621): 839.62 ± 0.5 kg/m3
- mass density (333.15 K, x1 = 0.9351): 835.15 ± 0.51 kg/m3
- mass density (333.15 K, x1 = 1): 831.25 ± 0.52 kg/m3
- mass density (343.15 K, x1 = 0.0689): 893.27 ± 0.34 kg/m3
- mass density (343.15 K, x1 = 0.132): 886.83 ± 0.35 kg/m3
- mass density (343.15 K, x1 = 0.1952): 880.71 ± 0.37 kg/m3
- mass density (343.15 K, x1 = 0.2621): 874.55 ± 0.38 kg/m3
- mass density (343.15 K, x1 = 0.3262): 868.95 ± 0.4 kg/m3
- mass density (343.15 K, x1 = 0.3865): 863.91 ± 0.41 kg/m3
- mass density (343.15 K, x1 = 0.4461): 859.15 ± 0.42 kg/m3
- mass density (343.15 K, x1 = 0.5121): 854.09 ± 0.44 kg/m3
- mass density (343.15 K, x1 = 0.5685): 849.94 ± 0.45 kg/m3
- mass density (343.15 K, x1 = 0.6332): 845.36 ± 0.46 kg/m3
- mass density (343.15 K, x1 = 0.7095): 840.17 ± 0.48 kg/m3
- mass density (343.15 K, x1 = 0.7651): 836.53 ± 0.49 kg/m3
- mass density (343.15 K, x1 = 0.8221): 832.9 ± 0.5 kg/m3
- mass density (343.15 K, x1 = 0.8858): 828.96 ± 0.51 kg/m3
- mass density (343.15 K, x1 = 0.9514): 824.99 ± 0.53 kg/m3
- mass density (343.15 K, x1 = 1): 822.11 ± 0.54 kg/m3
- mass density (353.15 K, x1 = 0.0458): 885.55 ± 0.35 kg/m3
- mass density (353.15 K, x1 = 0.1112): 878.86 ± 0.36 kg/m3
- mass density (353.15 K, x1 = 0.1784): 872.35 ± 0.38 kg/m3
- mass density (353.15 K, x1 = 0.2351): 867.13 ± 0.39 kg/m3
- mass density (353.15 K, x1 = 0.2965): 861.72 ± 0.4 kg/m3
- mass density (353.15 K, x1 = 0.3589): 856.48 ± 0.42 kg/m3
- mass density (353.15 K, x1 = 0.4152): 851.94 ± 0.43 kg/m3
- mass density (353.15 K, x1 = 0.4784): 847.06 ± 0.44 kg/m3
- mass density (353.15 K, x1 = 0.5321): 843.06 ± 0.45 kg/m3
- mass density (353.15 K, x1 = 0.5962): 838.48 ± 0.47 kg/m3
- mass density (353.15 K, x1 = 0.6748): 833.09 ± 0.48 kg/m3
- mass density (353.15 K, x1 = 0.7451): 828.47 ± 0.5 kg/m3
- mass density (353.15 K, x1 = 0.8032): 824.77 ± 0.51 kg/m3
- mass density (353.15 K, x1 = 0.8745): 820.37 ± 0.52 kg/m3
- mass density (353.15 K, x1 = 0.9548): 815.56 ± 0.54 kg/m3
- mass density (353.15 K, x1 = 1): 812.9 ± 0.55 kg/m3
